Test results: ChEMBL document CHEMBL1144951, “Synthesis of N-alkylated derivatives of imidazole as antibacterial agents” (2003)
≈ marks a conversion by molar mass, not a printed value.

Columns and labels:
Format in all cases: functional
[1] = tested on: Escherichia coli; assay: Minimum bacterial concentration (MBC) against Escherichia coli
[2] = tested on: Pseudomonas aeruginosa; assay: Minimum inhibitory concentration (MIC) against Pseudomonas aeruginosa
[3] = tested on: Staphylococcus aureus; assay: Minimum bacterial concentration (MBC) against Staphylococcus aureus
[4] = tested on: Escherichia coli; assay: Minimum inhibitory concentration (MIC) against Escherichia coli
[5] = tested on: Staphylococcus aureus; assay: Minimum inhibitory concentration (MIC) against Staphylococcus aureus
[6] = tested on: Pseudomonas aeruginosa; assay: Minimum bacterial concentration (MBC) against Pseudomonas aeruginosa

Compound | MBC [1] [µg/mL] | MIC [2] [µg/mL] | MBC [3] [µg/mL] | MIC [4] [µg/mL] | MIC [5] [µg/mL] | MBC [6] [µg/mL]
CCCCCCCn1ccnc1 | 100 (≈ 601 µM) | 83 (≈ 499 µM) | 66 (≈ 397 µM) | 50 (≈ 301 µM) | 33 (≈ 198 µM) | 166 (≈ 998 µM)
CCCCCn1ccnc1 | 193 (≈ 1400 µM) | 138 (≈ 998 µM) | 138 (≈ 998 µM) | 97 (≈ 702 µM) | 69 (≈ 499 µM) | 276 (≈ 2000 µM)
CCCn1ccnc1 | 220 (≈ 2000 µM) | 550 (≈ 4990 µM) | 198 (≈ 1800 µM) | 110 (≈ 999 µM) | 44 (≈ 399 µM) | 1100 (≈ 9990 µM)
CCCCCCCCCCCCn1ccnc1C | 18800 (≈ 74900 µM) |  | 18800 (≈ 74900 µM) | 17500 (≈ 69900 µM) | 17500 (≈ 69900 µM) | 
CCCCCCn1ccnc1 | 182 (≈ 1200 µM) | 122 (≈ 801 µM) | 91 (≈ 598 µM) | 91 (≈ 598 µM) | 46 (≈ 302 µM) | 243 (≈ 1600 µM)
CCCCCCCCn1cc([N+](=O)[O-])nc1C | 60 (≈ 251 µM) |  | 48 (≈ 201 µM) | 31 (≈ 130 µM) | 24 (≈ 100 µM) | 
CCn1ccnc1 | 960 (≈ 9990 µM) | 960 (≈ 9990 µM) | 960 (≈ 9990 µM) | 480 (≈ 4990 µM) | 480 (≈ 4990 µM) | 1920 (≈ 20000 µM)
CCCCCCCCCn1ccnc1 | 39 (≈ 201 µM) | 39 (≈ 201 µM) | 19 (≈ 97.8 µM) | 19 (≈ 97.8 µM) | 10 (≈ 51.5 µM) | 78 (≈ 401 µM)
CCCCCCCCCCn1ccnc1 | 416 (≈ 2000 µM) | 416 (≈ 2000 µM) | 416 (≈ 2000 µM) | 208 (≈ 998 µM) | 208 (≈ 998 µM) | 832 (≈ 3990 µM)
CCCCCCCCCCCCn1ccnc1 | 15300 (≈ 64900 µM) | 16500 (≈ 69900 µM) | 15300 (≈ 64900 µM) | 14200 (≈ 59900 µM) | 14200 (≈ 59900 µM) | 17700 (≈ 74900 µM)
CCCCn1cc([N+](=O)[O-])nc1C | 37 (≈ 202 µM) |  | 33 (≈ 180 µM) | 18 (≈ 98.2 µM) | 17 (≈ 92.8 µM) | 
CCCCCCCCn1ccnc1 | 90 (≈ 499 µM) | 54 (≈ 300 µM) | 45 (≈ 250 µM) | 45 (≈ 250 µM) | 27 (≈ 150 µM) | 108 (≈ 599 µM)
CCCCn1ccnc1 | 198 (≈ 1590 µM) | 248 (≈ 2000 µM) | 174 (≈ 1400 µM) | 99 (≈ 797 µM) | 87 (≈ 701 µM) | 496 (≈ 3990 µM)
CCCCCCCCCCCn1ccnc1 | 2220 (≈ 9980 µM) | 2220 (≈ 9980 µM) | 2220 (≈ 9980 µM) | 1110 (≈ 4990 µM) | 1110 (≈ 4990 µM) | 4440 (≈ 20000 µM)
GENTAMICIN | 128 | 8 | 4 | 64 | 2 | 12
CCCCCCn1ccnc1C | 50 (≈ 301 µM) |  | 50 (≈ 301 µM) | 25 (≈ 150 µM) | 25 (≈ 150 µM) | 
CCCCCCCCCCCCCCn1ccnc1 | 22400 (≈ 84900 µM) | 23800 (≈ 89800 µM) | 21100 (≈ 79900 µM) | 21100 (≈ 79900 µM) | 19800 (≈ 74900 µM) | 25100 (≈ 94800 µM)
CCCCCCCCCCCCCn1ccnc1 | 20000 (≈ 79900 µM) | 20000 (≈ 79900 µM) | 18800 (≈ 74900 µM) | 18800 (≈ 74900 µM) | 17500 (≈ 69900 µM) | 21200 (≈ 84900 µM)
